The results in this text go back to patent EP0947200B1, “Compositions comprising Cetrorelix acetate for the treatment of female infertility and gonadal protection” (Zentaris IVF GmbH, priority 1993, dated 2015).

The nature of data set [1]: Solubility and hydrolytic stability in acetic acid. Type of data set: physicochemical. From the text:
Überraschenderweise stellte sich nun heraus, daß man Cetrorelix in 30 %iger VolumenNolumen Essigsäure gut lösen kann. Diese Lösung wird anschließend auf eine Endkonzentration von 3 % Cetrorelix mit Wasser für Injektionszwecke aufgefüllt und Mannit hinzugegeben. […] Lösungen, die nach dieser Methode hergestellt werden, […]

Data set [2] deals with endogene Hormonproduktion (LH-FSH, Estradiol). Type of data set: in vivo, Patientinnen. From the text:
Es hat sich nun herausgestellt, daß der Antagonist Cetrorelix gerade bei dieser Behandlung folgende Vorteile aufweist:
Um eine totale Suppression zu erreichen, genügen bei der Behandlung mit Cetrorelix eine Behandlungsdauer von 5 Tagen. […] Darüber hinaus läßt sich in der 2. Therapiephase, der Ovulationsauslösephase, HMG einsparen. Dies stellt einen nicht unbeträchtlichen Kostenvorteil dieser in-vitro-Fertilisationsbehandlung dar. Die in-vitro-Fertilisation wird beispielsweise beim Vorliegen einer Tubenanomalie eingesetzt. Für diese Therapie ist es notwendig, den Zyklus genau zu kontrollieren und den Zeitpunkt der Ovulation möglichst genau festzulegen. Bisher wurde dies nur eingeschränkt erreicht, da durch Stimulation mit HMG/HCG der präovulatorische LH-Anstieg oft zu früh auftrat oder nicht lange genug aufrechterhalten wurde. Es ist jedoch von entscheidender Bedeutung für den Behandlungserfolg, diesen verfrühten Anstieg zu verhindern, um den Befruchtungszeitpunkt genau festlegen zu können. Dadurch wird die körperliche und psychische Belastung der Patientinnen reduziert und die Kliniklogistik optimal eingesetzt. […]

Data set [3] is classed as physicochemical. The protocol:
Gemäß vorliegender Anmeldung soll der Wirkstoff subcutan in einer Dosis von 0,1 bis 20 mg appliziert werden können. Die wässrigen Lösungen des Dekapeptids sind instabil, eine Autoklavierung im Endbehälter ist nicht möglich. […] Um eine injizierbare Lösung zu erhalten, war daher die Entwicklung eines Lyophilisats erforderlich. Allerdings ist die Menge des Wirkstoffes in der zu lyophilisierenden Lösung so gering, dass bei niedrigen Wirkstoffkonzentrationen nur ein lockerer Flaum an der Glaswand der Ampulle nach der Trocknung der hilfsstofffreien Lösung resultiert, der mit dem zur Sterilisierung benutzten Wasserdampfstrom aus dem Vial ausgetragen wird. Es ist also erforderlich, einen Gerüstbildner einzusetzen, der einen stabilen Kuchen bildet. Bei hohen Konzentrationen kann auf diesen Hilfsstoff verzichtet werden. Als Gerüstbildner kommen folgende Hilfsstoffe infrage: Hexite, insbesondere Mannit, Glucit, Sorbit, wie D-Sorbit, Dulcit, Allit, Altrit (zum Beispiel D- und L-Altrit), Idit (zum Beispiel D- und L-Idit), deren optisch aktive Formen (D- beziehungsweise L-Formen) sowie die entsprechenden Racemate. Insbesondere wird Mannit, wie D-Mannit, L-Mannit, DL-Mannit, Sorbit und/oder Dulcit verwendet, und zwar hiervon vorzugsweise D-Mannit. Als Hexit können auch Mischungen der genannten Hexite verwendet werden, zum Beispiel Mischungen von Mannit und Sorbit und/oder Dulcit. […]

For Cetrorelix, in data set [1] (acid medium (acetic acid solution)), the “Hydrolyse der endständigen Amidgruppe” value is listed as “nicht festgestellt”. In addition, in data set [1] (in 30 % (volume/volume) acetic acid), the Löslichkeit entry is “gut lösen”. Further, the “Behandlungsdauer, um eine totale Suppression zu erreichen” value in data set [2] (female patients, treatment of infertility) is 5 Tagen. In addition, in data set [2] (in vivo), the Hyperstimulationssyndrom result is recorded as “kann nicht auftreten”. Besides, the “Stabilität der wässrigen Lösungen” value in data set [3] was “instabil”. For the same substance, the “Verhalten unter arzneibuchüblicher Sterilisation” value in data set [3] (pharmacopoeial sterilisation (autoclaving in final container)) was “neigt unter arzneibuchüblicher Sterilisation zur Zersetzung”.
